Assay results as given in US7704956B2, “Glutathione-based delivery system” (Industrial Technology Research Institute, priority 2005, dated 2010).

Assays:
[1] = Pharmacokinetics of endomorphin-1 liposome (plasma, LC-MS/MS); assay type: in vivo, wistar mouse; conditions: 7.5 mg/kg, after 2 hr
Protocol: The plasma concentration of endomorphin-1 of a wistar mouse was analyzed by LC-MS/MS to study the pharmacokinetics of the endomorphin-1 liposome. […] However, the endomorphin-1 liposomes of Examples 14 and 17 prolonged the retention time of the endomorphin-1 in plasma to 24 hr. Also, T1/2 was prolonged from 6 min. to 2.4 hr and 1.8 hr, respectively.

[2] = Serum stability test of met-enkephalin liposome in fetal bovine serum; assay type: in vitro ADME; conditions: fetal bovine serum 1:1 (v/v), 37° C. water bath, 0, 1, 2 and 4 hours, gel filtration
Description: The 2 carriers provided by Example 5 and fetal bovine serum (FBS) were mixed with 1:1 (v/v) to form a solution.

Molecule	plasma concentration of endomorphin-1 [1]	residual concentration of met-enkephalin [2]
NC(=O)[C@H](Cc1ccccc1)NC(=O)[C@H](Cc1c[nH]c2ccccc12)NC(=O)[C@@H]1CCCN1C(=O)[C@@H](N)Cc1ccc(O)cc1 [endomorphin-1 solution, endomorphin-1]	no endomorphin-1 was detected	
met-enkephalin [free met-enkephalin]		2%
